Source: PMC6094047 (Antiviral Research, 2018)
Where two headings read alike, the source gives them in different places.

Columns and labels:
[1] = test system: A(H3N2) virus neuraminidase (NA); assay type: biochemical, influenza A(H3N2) virus
[2] = test system: B/Victoria-lineage virus neuraminidase (NA); details: cited from earlier work
[3] = test system: B/Yamagata-lineage virus neuraminidase (NA); set-up: method as in Gubareva et al., 2017a; Monto et al., 2006; details: ref Gubareva et al., 2017a, Monto et al., 2006, cited from earlier work
[4] = test system: influenza; set-up: method as in Rossignol, 2018; details: vs placebo, twice daily for 5 days, subjects enrolled within 36 h of symptom onset and followed up daily; ref Rossignol, 2018; cited from earlier work
[5] = test system: uncomplicated influenza; set-up: method as in Hayden, 2018; details: phase III, given <48 h after onset of symptoms; ref Hayden, 2018; cited from earlier work
[6] = test system: uncomplicated influenza; details: phase III, ref Epstein, 2017; cited from earlier work
[7] = test system: influenza; set-up: method as in Haffizula et al., 2014; details: 600 mg twice daily for five days, ref Haffizula et al., 2014, cited from earlier work
[8] = frequency of reported adverse events similar to placebo; cited from earlier work
[9] = B/Victoria-lineage NA A245T, ref Leang et al., 2014
[10] = B/Victoria-lineage NA D197N, ref Gubareva et al., 1998, 2017b, Ison et al., 2006, Mishin et al., 2005

Compound: [H]/N=C(\N)N[C@H]1C=C(C(=O)O)O[C@@H]([C@H](OC)[C@H](O)CO)[C@@H]1NC(C)=O [Laninamivir]
- IC50 fold-change compared to reference median IC50 values [1]: 17 fold

Compound: CCOC(=O)C1=C[C@@H](OC(CC)CC)[C@H](NC(C)=O)[C@@H](N)C1 [Oseltamivir]
- inhibition phenotype associated with NA AAS (NI/RI/HRI) [2, 9]: RI (type B viruses 5- to 50-fold)
- inhibition phenotype associated with NA AAS (NI/RI/HRI) [2, 10]: RI (type B viruses 5- to 50-fold)
- fold increase in IC50 ([3]; B/Yamagata-lineage NA I221T): greater than 5 fold
- improvement in median time to alleviation of symptoms [4]: 50 h

Compound: CCC(CC)[C@H](NC(C)=O)[C@@H]1[C@H](O)[C@@H](C(=O)O)C[C@H]1N=C(N)N [Peramivir]
- IC50 fold-change compared to reference median IC50 values [1]: 5.3 fold
- inhibition phenotype (NI/RI/HRI) [1]: NI (key: normal inhibition (NI) (type A viruses <10-fold; reduced inhibition (RI) (type A viruses 10- to 100-fold; highly reduced inhibition (HRI) (type A viruses >100-fold)
- inhibition phenotype associated with NA AAS (NI/RI/HRI) [2, 9]: RI (type B viruses 5- to 50-fold)
- inhibition phenotype associated with NA AAS (NI/RI/HRI) [2, 10]: RI (type B viruses 5- to 50-fold)
- inhibition phenotype associated with NA AAS (NI/RI/HRI) ([2]; B/Victoria-lineage NA K360E, D432G or H273Y, ref WHO-AVWG NAI substitution table): RI (type B viruses 5- to 50-fold)
- inhibition phenotype associated with NA AAS (NI/RI/HRI) ([3]; B/Yamagata-lineage NA I221V and I221T): RI (type B viruses 5- to 50-fold)

Compound: CC(=O)N[C@H]1[C@H]([C@H](O)[C@H](O)CO)OC(C(=O)O)=C[C@@H]1N=C(N)N [Zanamivir]
- inhibition phenotype associated with NA AAS (NI/RI/HRI) [2, 9]: RI (type B viruses 5- to 50-fold)
- inhibition phenotype associated with NA AAS (NI/RI/HRI) [2, 10]: RI (type B viruses 5- to 50-fold)

Compound: O=C1c2c(O)c(=O)ccn2N([C@@H]2c3ccccc3SCc3c2ccc(F)c3F)[C@@H]2COCCN12 [baloxavir, Baloxavir]
- alleviation of symptoms faster than placebo [5]: 26.5 h

Compound: NC(=O)c1nc(F)c[nH]c1=O [favipiravir, Favipiravir]
- reduction of median time to alleviation of symptoms compared to placebo [6]: 6 to 14 h

Compound: CC(=O)Oc1ccccc1C(=O)Nc1ncc([N+](=O)[O-])s1 [nitazoxanide, Nitazoxanide]
- median improvement in alleviation of influenza symptoms ([7]; enrolled within 48 h of symptom onset, p = 0.0084): 22 h
- virus shedding ([7]; p = 0.0006): significant reduction
- improvement in median time to alleviation of symptoms [4]: 50 h
- tolerability, adverse events [8]: well tolerated
